According to US11739083B2, “Disposable sensor chip with reagent including 2-substituted benzothiazolyl-3-substituted phenyl-5-substituted sulfonated phenyl-2H-tetrazolium salt” (TERUMO KABUSHIKI KAISHA, priority 2016, dated 2023):

Assays:
[1] = Evaluation of sensitivity (colour development with glucose, GDH-FAD, m-PMS, nickel; gradient versus WST-4)
Procedure: (§1) Separately, 100 μL of RO water was added to 7 mg of a glucose dehydrogenase that uses flavin adenine dinucleotide (FAD) as a coenzyme (GDH-FAD) (manufactured by TOYOBO CO., LTD., product No.: GLD-351), the enzyme was dissolved, and thus a GDH solution was produced. Furthermore, 200 μL of RO water was added to 3.5 mg of 1-methoxy-5-methylphenazium methyl sulfate (m-PMS) (manufactured by DOJINDO LABORATORIES), and the compound was dissolved therein. Thus, an s-PMS solution was produced. 1 mL of RO water was added to 129 mg of nickel chloride to dissolve the salt, and thus a nickel solution was produced.
40 μL of the reaction solution was added to 10 μL each of an aqueous glucose solution at a concentration of 125 mg/dL, an aqueous glucose solution at a concentration of 250 mg/dL, and an aqueous glucose solution at a concentration of 1,000 mg/dL, and the mixtures were allowed to develop color. The spectra were measured with a spectrophotometer (measurement cell length: 50 μm) (n=1). […] Thus, the gradient (gradientsample) was determined.
40 μL of the control reaction solution was added to 10 μL each of an aqueous glucose solution at a concentration of 125 mg/dL, an aqueous glucose solution at a concentration of 250 mg/dL, and an aqueous glucose solution at a concentration of 1,000 mg/dL, and the mixtures were allowed to develop color. The spectra were measured with a spectrophotometer (measurement cell length: 50 μm) (n=1). For each of the spectra, the absorbance at 650 nm, which is the measurement wavelength (λmax) of WST-4, was measured, and the glucose concentration in the colored solution and the absorbance were plotted on the horizontal axis and the vertical axis, respectively. Thus, the gradient (gradientWST-4) was determined.
FIG. 2 is a graph showing the relationship between the glucose concentration and the absorbance of produced formazan in relation to the tetrazolium compound 1 and WST-4. […] Meanwhile, the gradient serves as an index for the color development intensity of each compound. Therefore, when the value obtained by dividing the gradientsample by the gradientWST-4 (gradientsample/gradientWST-4) is greater than one-fold, it is implied that the intensity of color development on the longer wavelength side is higher compared to WST-4, which is a well-known indicator reagent.

[2] = Evaluation of water-solubility (visual check for precipitate); assay type: physicochemical; conditions: RO water / 0.5 M MOPS solution (1:1), aqueous buffer, thermodynamic from solid; RO water and 0.5 M MOPS pH 7.2; 200, 100, 20 mM; stirred 5 minutes
Procedure: After the mixture was stirred for 5 minutes, a precipitate was checked by visual inspection. […] After the mixture was stirred for 5 minutes, a precipitate was checked by visual inspection. […] After the mixture was stirred for 5 minutes, a precipitate was checked by visual inspection.

[3] = Evaluation Example 1: evaluation as blood glucose meter sensor
Procedure: as §1, with “dehydrogenase” for “dehydrogenase that uses flavin adenine dinucleotide (FAD) as a coenzyme”, “GLD-351) to dissolve” for “GLD-351),”, “enzyme,” for “enzyme was dissolved,”, “LABORATORIES) to dissolve the compound,” for “LABORATORIES),”, “thus” for “the compound was dissolved therein. Thus,”
The coating liquid obtained as described above was applied on a PET film, and a reagent ribbon 1 was produced. The area of coating was 1.5 mm×75 mm (total coating amount 5.6 μL). This reagent ribbon 1 was cut in the longitudinal direction, and a reagent piece 2 was obtained (1.5 mm×3 mm).
Along the two edges of a PET film 5 that would become one surface of a blood glucose meter sensor, a double-sided tape having a thickness of […] was provided as a spacer. […]
A whole blood sample (Ht40, 100 mg/dL) (hematocrit value 40%, glucose concentration 100 mg/dL) was spotted at the flow channel inlet port of the blood glucose meter sensor thus produced. The whole blood sample (Ht40, 100 mg/dL) was produced as follows: whole blood was collected into a heparin-containing blood sampling tube, the hematocrit value of this whole blood was measured, and the hematocrit value of the whole blood sample was regulated to be Ht40 by adding the blood plasma obtained by separation in advance, or by removing the blood plasma of the whole blood sample, as appropriate. […] The specimen was spotted on the reagent part, and then after 9 seconds, the spectrum was measured using a fiber spectrophotometer. The absorbance at the maximum absorption wavelength was measured using the spectrum measured with each of the blood glucose meter sensors that used various compounds. The absorbance obtainable in the case of measuring the whole blood sample (Ht40, 100 mg/dL) was designated as AbsBG100. […]

Compound: COc1ccc2nc(-n3nc(-c4ccc(S(=O)(=O)O)cc4S(=O)(=O)[O-])n[n+]3-c3ccc(OC)c(S(=O)(=O)O)c3)sc2c1 [Example 1]
- ratio gradientsample/gradientWST-4 ([1]; FIG. 2): about 2.4
- gradient (absorbance versus glucose concentration) ([1]; FIG. 2, compound 1 at its λmax with nickel, WST-4 at 650 nm without nickel): 0.0063
- Sensitivity, comparison with Comparative Example 5 (rating) ([1]; gradientsample/gradientWST-4, absorbance at λmax versus glucose concentration, cell length 50 μm): ⊙ (gradientsample/gradientWST-4) was 2 or greater)
- solubility at 5 min [2]: > 200 mM
- time to completion of color development ([3]; whole blood and aqueous glucose solution, absorbance at 630 nm, FIG. 7): 5 s
- absorbance ([3]; whole blood and aqueous glucose solutions, 9 seconds from initiation of reaction, FIG. 6): higher than 0.2
- color development (ΔAbs=AbsBG100−AbsBG0) relative to WST-4 (650 nm) ([3]; whole blood sample Ht40, 100 mg/dL, 9 seconds, FIG. 5): about 3 times
